Experimental data taken from US20080200454A1, “CARBON-LINKED TETRAHYDRO-PYRAZOLO-PYRIDINE MODULATORS OF CATHEPSIN S” (priority 2007, published 2008).
pIC50: −log10 of the molar value.

Molecular target: Recombinant human cathepsin S (CatS) (Homo sapiens, UniProt P25774)
Test: Recombinant human cathepsin S (CatS) inhibition assay, fluorogenic substrate Z-Valine-Valine-Arginine-AMC;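 further: Baculovirus-expressed CatS in pH 5.0 sodium acetate buffer with DTT and NaCl, fluorescence read each minute over 20 min, inhibition derived from rate slope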
Settings: not given

Recombinant human cathepsin S (CatS), sequence (P25774 115-331): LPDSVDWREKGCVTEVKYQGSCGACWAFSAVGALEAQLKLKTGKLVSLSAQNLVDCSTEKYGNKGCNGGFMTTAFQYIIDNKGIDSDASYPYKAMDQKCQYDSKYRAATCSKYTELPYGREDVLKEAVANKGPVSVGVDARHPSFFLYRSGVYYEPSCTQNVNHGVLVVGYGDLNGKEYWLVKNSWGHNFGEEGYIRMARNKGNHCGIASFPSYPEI

Row | SMILES | pIC50
1 | CS(=O)(=O)N1CCc2c(c(-c3ccc(Cl)c(C#CCNC(=O)c4ccccc4)c3)nn2CCCN2CCOCC2)C1 [Example 53, N-(3-{2-Chloro-5-[5-methanesulfonyl-1-(3-morpholin-4-yl-propyl)-4,5,6,7-tetrahydro-1H-pyrazolo[4,3-c]pyridin-3-yl]-phenyl}-prop-2-ynyl)-benzamide] | 4.81
2 | CS(=O)(=O)N1CCc2c(c(-c3ccc(Cl)c(C#Cc4ccc(CNCc5ccccc5)cc4)c3)nn2CCCN2CCOCC2)C1 [Example 74, Benzyl-(4-{2-chloro-5-[5-methanesulfonyl-1-(3-morpholin-4-yl-propyl)-4,5,6,7-tetrahydro-1H-pyrazolo[4,3-c]pyridin-3-yl]-phenylethynyl}-benzyl)-amine] | 6.37
3 | CS(=O)(=O)N1CCc2c(c(-c3ccc(Cl)c(CCCCN4CCCCC4)c3)nn2CCCN2CCC(N3CCCC3=O)CC2)C1 [Example 110, 1-[1-(3-{3-[4-Chloro-3-(4-piperidin-1-yl-butyl)-phenyl]-5-methanesulfonyl-4,5,6,7-tetrahydro-pyrazolo[4,3-c]pyridin-1-yl}-propyl)-piperidin-4-yl]-pyrrolidin-2-one] | 5.52

Other lines, results leading:

Row | pIC50 | SMILES
4 | 7.22 | CS(=O)(=O)N1CCc2c(c(-c3ccc(Cl)c(C#Cc4ccc(CNCc5ccc(Cl)cc5)cc4)c3)nn2CCCN2CCCCC2)C1 [Example 181, 1-[4-({2-Chloro-5-[5-(methylsulfonyl)-1-(3-piperidin-1-ylpropyl)-4,5,6,7-tetrahydro-1H-pyrazolo[4,3-c]pyridin-3-yl]phenyl}ethynyl)phenyl]-N-[(4-chlorophenyl)methyl]methanamine]
5 | 7.52 | CC(=O)N1CCC(C2CCN(C[C@H](O)Cn3nc(-c4ccc(Cl)c(C#Cc5ccc(Cl)cc5)c4)c4c3CCN(S(C)(=O)=O)C4)CC2)CC1 [Example 241, (2S)-1-(1′-Acetyl-4,4′-bipiperidin-1-yl)-3-[3-{4-chloro-3-[(4-chlorophenyl)ethynyl]phenyl}-5-(methylsulfonyl)-4,5,6,7-tetrahydro-1H-pyrazolo[4,3-c]pyridin-1-yl]propan-2-ol]
6 | 7.70 | CS(=O)(=O)N1CCc2c(c(-c3ccc(Cl)c(C#Cc4ccc(CNCc5ccc(Cl)cc5)cc4)c3)nn2CCCN2CCC(NC(=O)CO)CC2)C1 [Example 356, N-(1-{3-[3-(4-Chloro-3-{[4-({[(4-chlorophenyl)methyl]amino}methyl)phenyl]ethynyl}phenyl)-5-(methylsulfonyl)-4,5,6,7-tetrahydro-1H-pyrazolo[4,3-c]pyridin-1-yl]propyl}piperidin-4-yl)-2-hydroxyacetamide]
7 | 7.70 | NC(=O)C(=O)N1CCc2c(c(-c3ccc(Cl)c(C#Cc4ccc(CNCc5ccc(Cl)cc5)cc4)c3)nn2CCCN2CCN(c3ccccc3)CC2)C1 [Example 429, 2-{3-(4-Chloro-3-{[4-({[(4-chlorophenyl)methyl]amino}methyl)phenyl]ethynyl}phenyl)-1-[3-(4-phenylpiperazin-1-yl)propyl]-1,4,6,7-tetrahydro-5H-pyrazolo[4,3-c]pyridin-5-yl}-2-oxoacetamide]
8 | 7.70 | CN1CCC(C2CCN(C[C@H](O)Cn3nc(-c4ccc(Cl)c(CCc5ccc(Cl)cc5)c4)c4c3CCN(S(C)(=O)=O)C4)CC2)CC1 [Example 248, (2S)-1-[3-{4-Chloro-3-[2-(4-chlorophenyl)ethyl]phenyl}-5-(methylsulfonyl)-4,5,6,7-tetrahydro-1H-pyrazolo[4,3-c]pyridin-1-yl]-3-(1′-methyl-4,4′-bipiperidin-1-yl)propan-2-ol]
9 | 6.74 | CS(=O)(=O)N1CCc2c(c(-c3ccc(Cl)c(C#Cc4ccc5c(c4)CC(C(=O)N4CCCC4)NC5)c3)nn2CCCN2CCOCC2)C1 (centres unmarked) [Example 484, 6-({2-Chloro-5-[5-(methylsulfonyl)-1-(3-morpholin-4-ylpropyl)-4,5,6,7-tetrahydro-1H-pyrazolo[4,3-c]pyridin-3-yl]phenyl}ethynyl)-3-(pyrrolidin-1-ylcarbonyl)-1,2,3,4-tetrahydroisoquinoline]
10 | 6.08 | NC(=O)N1CCc2c(c(-c3ccc(Cl)c(C#Cc4ccc(CN5CCC(N6CCCC6=O)CC5)cc4)c3)nn2CCCN2CCSCC2)C1 [Example 165, 3-{4-Chloro-3-[(4-{[4-(2-oxopyrrolidin-1-yl)piperidin-1-yl]methyl}phenyl)ethynyl]phenyl}-1-(3-thiomorpholin-4-ylpropyl)-1,4,6,7-tetrahydro-5H-pyrazolo[4,3-c]pyridine-5-carboxamide]
11 | 6.92 | COC(=O)[C@@H](NCc1ccc(C#Cc2cc(-c3nn(CCCN4CCOCC4)c4c3CN(S(C)(=O)=O)CC4)ccc2Cl)cc1)c1ccccc1 [Example 351, Methyl (2S)-({[4-({2-chloro-5-[5-(methylsulfonyl)-1-(3-morpholin-4-ylpropyl)-4,5,6,7-tetrahydro-1H-pyrazolo[4,3-c]pyridin-3-yl]phenyl}ethynyl)phenyl]methyl}amino)(phenyl)ethanoate]
12 | 6.39 | CC(=O)NC1CCN(CCCn2nc(-c3ccc(Cl)c(C#Cc4ccc(CNCc5ccc(Cl)cc5)cc4)c3)c3c2CCNC3)CC1 [Example 369, N-(1-{3-[3-(4-Chloro-3-{[4-({[(4-chlorophenyl)methyl]amino}methyl)phenyl]ethynyl}phenyl)-4,5,6,7-tetrahydro-1H-pyrazolo[4,3-c]pyridin-1-yl]propyl}piperidin-4-yl)acetamide]
13 | 6.46 | CC1COCCN1C[C@H](O)Cn1nc(-c2ccc(Cl)c(C#Cc3ccc(CNCc4ccc(Cl)cc4)cc3)c2)c2c1CCN(S(C)(=O)=O)C2 (stereo in doubt) [Example 266, (2S)-1-[3-(4-Chloro-3-{4-[(4-chloro-benzylamino)-methyl]-phenylethynyl}-phenyl)-5-methanesulfonyl-4,5,6,7-tetrahydro-pyrazolo[4,3-c]pyridin-1-yl]-3-((3S)-3-methyl-morpholin-4-yl)-propan-2-ol]

Same assay, conditions: CatS IC50

Row | SMILES | pIC50
14 | NC(=O)N1CCc2c(c(-c3ccc(Cl)c(C#Cc4ccc(CNCc5ccccc5F)cc4)c3)nn2CCCN2CCSCC2)C1 [Example 542, 3-(4-Chloro-3-{[4-({[(2-fluorophenyl)methyl]amino}methyl)phenyl]ethynyl}phenyl)-1-(3-thiomorpholin-4-ylpropyl)-1,4,6,7-tetrahydro-5H-pyrazolo[4,3-c]pyridine-5-carboxamide] | 6.74
15 | CS(=O)(=O)N1CCc2c(c(-c3ccc(Cl)c(C#Cc4ccc(CNCc5ccc(Cl)cc5)cc4)c3)nn2CCCN2CCN(c3ccncc3)CC2)C1 [Example 416, 1-{4-[(2-Chloro-5-{5-(methylsulfonyl)-1-[3-(4-pyridin-4-ylpiperazin-1-yl)propyl]-4,5,6,7-tetrahydro-1H-pyrazolo[4,3-c]pyridin-3-yl}phenyl)ethynyl]phenyl}-N-[(4-chlorophenyl)methyl]methanamine] | 7.15
16 | CCCNCc1cc(C#Cc2cc(-c3nn(CCCN4CCOC[C@@H]4C)c4c3CN(C(=O)C(N)=O)CC4)ccc2Cl)ccc1Cl [Example 270, (S)-2-{3-[4-Chloro-3-(4-chloro-3-propylaminomethyl-phenylethynyl)-phenyl]-1-[3-(3-methyl-morpholin-4-yl)-propyl]-1,4,6,7-tetrahydro-pyrazolo[4,3-c]pyridin-5-yl}-2-oxo-acetamide] | 7.70
17 | CS(=O)(=O)N1CCc2c(c(-c3ccc(Cl)c(C#Cc4ccc(F)cc4F)c3)nn2CCCN2CCOCC2)C1 [Example 33, 3-[4-Chloro-3-(2,4-difluoro-phenylethynyl)-phenyl]-5-methanesulfonyl-1-(3-morpholin-4-yl-propyl)-4,5,6,7-tetrahydro-1H-pyrazolo[4,3-c]pyridine] | 6.12
18 | Cn1cncc1CNCc1ccc(C#Cc2cc(-c3nn(CCCN4CCOCC4)c4c3CN(S(C)(=O)=O)CC4)ccc2Cl)cc1 [Example 457, 1-[4-({2-Chloro-5-[5-(methylsulfonyl)-1-(3-morpholin-4-ylpropyl)-4,5,6,7-tetrahydro-1H-pyrazolo[4,3-c]pyridin-3-yl]phenyl}ethynyl)phenyl]-N-[(1-methyl-1H-imidazol-5-yl)methyl]methanamine] | 7.05
19 | CS(=O)(=O)N1CCc2c(c(-c3ccc(Cl)c(C#Cc4ccc(CNCCc5cccs5)cc4)c3)nn2CCCN2CCOCC2)C1 [Example 423, N-{[4-({2-Chloro-5-[5-(methylsulfonyl)-1-(3-morpholin-4-ylpropyl)-4,5,6,7-tetrahydro-1H-pyrazolo[4,3-c]pyridin-3-yl]phenyl}ethynyl)phenyl]methyl}-2-(2-thienyl)ethanamine] | 6.57
20 | NC(=O)N1CCc2c(c(-c3ccc(Cl)c(C#Cc4ccc(C(=O)NCCN5CCOCC5)cc4)c3)nn2CCCN2CCSCC2)C1 [Example 607, 3-[4-Chloro-3-({4-[(2-morpholin-4-ylethyl)carbamoyl]phenyl}ethynyl)phenyl]-1-(3-thiomorpholin-4-ylpropyl)-1,4,6,7-tetrahydro-5H-pyrazolo[4,3-c]pyridine-5-carboxamide] | 7.30
21 | NC(=O)N1CCc2c(c(-c3ccc(Cl)c(C#Cc4ccc(CNCc5ccccc5Cl)cc4)c3)nn2CCCN2CCSCC2)C1 [Example 488, 3-(4-Chloro-3-{[4-({[(2-chlorophenyl)methyl]amino}methyl)phenyl]ethynyl}phenyl)-1-(3-thiomorpholin-4-ylpropyl)-1,4,6,7-tetrahydro-5H-pyrazolo[4,3-c]pyridine-5-carboxamide] | 6.85
22 | CS(=O)(=O)N1CCc2c(c(-c3ccc(Cl)c(C#Cc4ccc(CNCc5ccc(Cl)cc5)cc4)c3)nn2CCCN2C[C@@H]3C[C@H]2CN3)C1 [Example 493, 1-[4-({2-Chloro-5-[1-{3-[(1S,4S)-2,5-diazabicyclo[2.2.1]hept-2-yl]propyl}-5-(methylsulfonyl)-4,5,6,7-tetrahydro-1H-pyrazolo[4,3-c]pyridin-3-yl]phenyl}ethynyl)phenyl]-N-[(4-chlorophenyl)methyl]methanamine] | 6.52

Same assay, conditions: CatS IC50, Table 2; average of results obtained

Row | SMILES | pIC50
23 | CS(=O)(=O)N1CCc2c(c(-c3ccc(Cl)c(C#Cc4ccc(C(=O)O)cc4)c3)nn2CCCN2CCOCC2)C1 [Example 19, 4-{2-Chloro-5-[5-methanesulfonyl-1-(3-morpholin-4-yl-propyl)-4,5,6,7-tetrahydro-1H-pyrazolo[4,3-c]pyridin-3-yl]-phenylethynyl}-benzoic acid] | 6.38
